According to ChEMBL document CHEMBL1641518, “Synthesis and biological evaluation of tubulysin D analogs related to stereoisomers of tubuvaline” (Bioorg Med Chem Lett, 2011):

What was measured:
MCF7 = experiment: Cytotoxicity against human MCF7 cells after 72 hrs by MTT assay; type: functional, cell-based; conditions: MCF7, 72 h
HL-60 = experiment: Cytotoxicity against human HL60 cells after 72 hrs by MTT assay; type: functional, cell-based; conditions: HL-60, 72 h
HCT-116 = experiment: Cytotoxicity against human HCT116 cells after 72 hrs by MTT assay; type: functional, cell-based; conditions: HCT-116, 72 h
A549 = experiment: Cytotoxicity against human A549 cells after 72 hrs by MTT assay; type: functional, cell-based; conditions: A549, 72 h
Tubulin = Tubulin (Sus scrofa, UniProt P02554+P02550); experiment: Inhibition of porcine brain tubulin polymerization by microtubule assembly assay

SMILES	IC50 (MCF7) [nM]	IC50 (HL-60) [nM]	IC50 (HCT-116) [nM]	IC50 (A549) [nM]	IC50 (Tubulin) [nM]
CC[C@H](C)[C@H](NC(=O)[C@H]1CCCCN1C)C(=O)N(COC(=O)CC(C)C)[C@H](C[C@@H](OC(C)=O)c1nc(C(=O)N[C@@H](Cc2ccccc2)C[C@H](C)C(=O)O)cs1)C(C)C [TUBULYSIN D]	0.67	0.0047	0.0031	0.013	1700
CC[C@]1(O)C[C@@H]2CN(CCc3c([nH]c4ccccc34)[C@@](C(=O)OC)(c3cc4c(cc3OC)N(C)[C@H]3[C@@](O)(C(=O)OC)[C@H](OC(C)=O)[C@]5(CC)C=CCN6CC[C@]43[C@@H]65)C2)C1 [VINBLASTINE]	0.79	1	27	17	–
CC[C@H](C)[C@H](NC(=O)[C@H]1CCCCN1C)C(=O)N[C@@H](C[C@@H](OC(C)=O)c1nc(C(=O)N[C@@H](Cc2ccccc2)C[C@H](C)C(=O)O)cs1)C(C)C [13-EPI-TUBULYSIN D]	240	98	920	1200	1700
CC[C@H](C)[C@H](NC(=O)[C@H]1CCCCN1C)C(=O)N[C@@H](C[C@H](OC(C)=O)c1nc(C(=O)N[C@@H](Cc2ccccc2)C[C@H](C)C(=O)O)cs1)C(C)C	> 10000	3600	> 10000	> 10000	6300
CC[C@H](C)[C@H](NC(=O)[C@H]1CCCCN1C)C(=O)N[C@H](C[C@H](OC(C)=O)c1nc(C(=O)N[C@@H](Cc2ccccc2)C[C@H](C)C(=O)O)cs1)C(C)C [11-EPI-TUBULYSIN D]	280	3.1	13	43	1400
